Data: PubChem BioAssay (NCI)
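Interpolation was linear, between the two tested concentrations surrounding the appropriate level; five concentrations were tested over 48 hours in 96-well plates. The concentration for full growth arrest is given as TGI.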

Experiments:
Assay in all cases: NCI tumour cell line growth inhibition, 48 h
DMS 114 small cell lung = system: DMS 114 small cell lung
KM20L2 colon = system: KM20L2 colon
LXFL 529 NSCLC = system: LXFL 529 NSCLC
M19-MEL melanoma = system: M19-MEL melanoma
RXF-631 renal = system: RXF-631 renal
SNB-78 CNS = system: SNB-78 CNS
XF 498 CNS = system: XF 498 CNS
HOP-18 NSCLC = system: HOP-18 NSCLC
P388 leukemia = system: P388 leukemia
P388/ADR leukemia = system: P388/ADR leukemia
SN12K1 renal = system: SN12K1 renal

Row | Compound | TGI (DMS 114 small cell lung) [µM] | TGI (KM20L2 colon) [µM] | TGI (LXFL 529 NSCLC) [µM] | TGI (M19-MEL melanoma) [µM] | TGI (RXF-631 renal) [µM] | TGI (SNB-78 CNS) [µM] | TGI (XF 498 CNS) [µM] | TGI (HOP-18 NSCLC) [µM] | TGI (P388 leukemia) [µM] | TGI (P388/ADR leukemia) [µM] | TGI (SN12K1 renal) [µM]
1 | COc1ccc(OC)c(NC(=O)C(=O)C(C(=O)c2ccccc2F)C2OC(=O)c3ccccc32)c1 (stereo unspecified) | > 100 | > 100 | > 100 | > 100 | > 100 | > 100 | > 100 |  |  |  | 
2 | c1c(N2CCOCC2)ssc1=[N+]1CCOCC1 | > 100 | > 100 | > 100 |  |  | > 100 |  | > 100 |  |  | 
3 | CC(=O)OC1CC2(O)C(CCC3(C)C(c4ccc(=O)oc4)CCC32O)C2(C)C1=CC(O)C1OC12 (stereo unspecified) | 0.0335 | 0.533 |  | 0.245 |  | 0.279 | 0.201 | 0.385 | 154 | 250 | 0.139
